Laboratory results: BigSolDB 2.1

Cc1c(C(=O)O)cccc1[N+](=O)[O-]
solubility (mole fraction)
Details	278.15 K	283.15 K	288.15 K	293.15 K	298.15 K	303.15 K	308.15 K	313.15 K
in 1,4-dioxane	–	–	0.0933	0.102	0.112	0.121	0.132	0.143
in DMF	0.147	0.166	0.191	0.217	0.244	0.275	0.31	0.35
in acetonitrile	0.00434	0.00523	0.00624	0.00737	0.00879	0.0104	0.0122	0.0143
in ethanol	0.0152	0.0181	0.0216	0.0254	0.0297	0.0349	0.041	0.0478
in ethyl acetate	0.0228	0.0258	0.0297	0.0336	0.0378	0.0426	0.0478	0.0538
in isobutanol	0.00938	0.0114	0.014	0.0166	0.0201	0.024	0.028	0.033
in isopropanol	0.0133	0.0161	0.019	0.0224	0.0266	0.0314	0.0362	0.0426
in isopropyl acetate	0.0146	0.017	0.0196	0.023	0.027	0.031	0.0361	0.0413
in methanol	0.0136	0.016	0.0193	0.0225	0.0264	0.0312	0.0367	0.0424
in methyl acetate	0.0265	0.0302	0.0338	0.038	0.0428	0.0483	0.0539	0.06
in n-butanol	0.0178	0.0213	0.0255	0.0308	0.0366	0.0434	0.0515	0.0608
in n-butyl acetate	0.0165	0.0191	0.0227	0.0261	0.0296	0.034	0.039	0.0446
in n-propanol	0.016	0.019	0.0227	0.027	0.032	0.0379	0.0441	0.0519
in n-propyl acetate	0.0191	0.0221	0.0251	0.0293	0.0335	0.038	0.0432	0.049
